According to ChEMBL document CHEMBL5576134, “Targeting Pancreatic Cancer with Novel Nicolaioidesin C Derivatives: Molecular Mechanism, In Vitro, and In Vivo Evaluations” (J Med Chem, 2024):
Active and inactive are the calls of the source. No cut-off for these calls is given here.

Legend:
MIA PaCa-2 [1] = assay: Preferential cytotoxicity against human MIA PaCa-2 cells in nutrient-deprived medium measured after 24 hrs by WST-8 cell counting analysis; assay type: functional
MIA PaCa-2 [2] = assay: Preferential cytotoxicity against human MIA PaCa-2 cells in DMEM measured after 24 hrs by WST-8 cell counting analysis; assay type: functional, cell-based; conditions: MIA PaCa-2, 24 h
[3] = Selectivity index, ratio of IC50 for preferential cytotoxicity against human MIA PaCa-2 cells in DMEM to PC50 for preferential cytotoxicity against human MIA PaCa-2 cells in nutrient-deprived medium; assay type: functional
PANC-1 [4] = assay: Preferential cytotoxicity against human PANC-1 cells in nutrient-deprived medium measured after 24 hrs by WST-8 cell counting analysis; assay type: functional
PANC-1 [5] = assay: Preferential cytotoxicity against human PANC-1 cells in DMEM measured after 24 hrs by WST-8 cell counting analysis; assay type: functional, cell-based; conditions: PANC-1, 24 h
[6] = Selectivity index, ratio of IC50 for preferential cytotoxicity against human PANC-1 cells in DMEM to PC50 for preferential cytotoxicity against human PANC-1 cells in nutrient-deprived medium; assay type: functional
[7] = Toxicity in BALB/c/Nu/Nu mouse xenografted with human MIA PaCa-2 cells assessed as change in body weight at 60 mg/kg, ip administered 5 times a week for 4 weeks; assay type: organism-based; conditions: in vivo, 672 h
MIA PaCa-2 [8] = assay: Antitumor activity against human MIA PaCa-2 cells xenografted in BALB/c/Nu/Nu mouse assessed as tumor volume at 60 mg/kg, ip administered 5 times a week for 4 weeks and measured on day 32 (reference value: 1417 mm3); assay type: functional; conditions: time 32 day
MIA PaCa-2 [9] = assay: Antitumor activity against human MIA PaCa-2 cells xenografted in BALB/c/Nu/Nu mouse assessed as reduction in final tumor weight at 60 mg/kg, ip administered 5 times a week for 4 weeks (reference value: […]); assay type: functional
MIA PaCa-2 [10] = assay: Antitumor activity against human MIA PaCa-2 cells xenografted in BALB/c/Nu/Nu mouse assessed as reduction in number of blood vessels in skin at 60 mg/kg, ip administered 5 times a week for 4 weeks; assay type: functional, organism-based

Structure (SMILES) | PC50 (MIA PaCa-2 [1]) | IC50 (MIA PaCa-2 [2]) | Selectivity Index [3] | PC50 (PANC-1 [4]) | IC50 (PANC-1 [5]) | Selectivity Index [6] | Activity [7] | Activity (MIA PaCa-2 [8]) | Activity (MIA PaCa-2 [9]) | Activity (MIA PaCa-2 [10])
COc1cc(O)c(C(=O)[C@H]2CC=C(CCC=C(C)C)C[C@@H]2c2ccc(F)c(F)c2)c(O)c1 (relative stereo) | 0.69 µM | 27.1 µM | 39.3 | 0.54 µM | 15.5 µM | 28.5 |  |  |  | 
COc1ccc([C@H]2CC(CCC=C(C)C)=CC[C@@H]2C(=O)c2c(O)cc(OC)cc2O)cc1 (relative stereo) | 1.93 µM | 102 µM | 52.9 | 0.45 µM | 50 µM | 110 |  |  |  | 
CC(C)=CCCC1=CC[C@H](C(=O)c2c(O)cccc2O)[C@@H](c2cc(F)cc(F)c2)C1 (relative stereo) | 0.75 µM | 19.7 µM | 26.2 | 0.33 µM | 10.5 µM | 31.6 |  |  |  | 
Nc1ccn([C@@H]2O[C@H](CO)[C@@H](O)C2(F)F)c(=O)n1 [GEMCITABINE] |  |  |  |  |  |  | Non-Toxic | 632 mm3 | 227 mg | Active
CC(C)=CCCC1=CC[C@H](C(=O)c2c(O)cccc2O)[C@@H](c2ccc(F)c(F)c2)C1 (relative stereo) | 0.68 µM | 23.1 µM | 33.8 | 0.33 µM | 11 µM | 33.5 |  |  |  | 
COc1cc(O)c(C(=O)[C@H]2CC=C(CCC=C(C)C)C[C@@H]2c2ccccc2)c(O)c1 | 2.76 µM | 61.4 µM | 22.3 | 0.55 µM | 25.3 µM | 46.3 |  |  |  | 
CC(C)=CCCC1=CC[C@H](C(=O)c2c(O)cccc2O)[C@@H](c2cccc(Cl)c2Cl)C1 (relative stereo) | 0.62 µM | 20.3 µM | 32.9 | 0.45 µM | 10.5 µM | 23.5 |  |  |  | 
COc1cc(O)c(C(=O)[C@H]2CC=C(CCC=C(C)C)C[C@@H]2c2cccc(F)c2F)c(O)c1 (relative stereo) | 1.01 µM | 33.8 µM | 33.4 | 0.64 µM | 24.4 µM | 38 |  |  |  | 
CC(C)=CCCC1=CC[C@H](C(=O)c2c(O)cccc2O)[C@@H](c2cc(F)ccc2F)C1 (relative stereo) | 0.77 µM | 20.8 µM | 26.9 | 0.53 µM | 11.2 µM | 21.1 |  |  |  | 
COc1cc(O)c(C(=O)[C@H]2CC=C(CCC=C(C)C)C[C@@H]2c2c(F)cccc2F)c(O)c1 (relative stereo) | 1.54 µM | 26.3 µM | 17 | 1.49 µM | 19.4 µM | 13 |  |  |  | 
CC(C)=CCCC1=CC[C@H](C(=O)c2c(O)cccc2O)[C@@H](c2ccccc2F)C1 (relative stereo) | 0.84 µM | 25 µM | 29.6 | 0.47 µM | 13.8 µM | 29.5 |  |  |  | 
COc1cc(O)c(C(=O)[C@H]2CC=C(CCC=C(C)C)C[C@@H]2c2ccc(Cl)cc2)c(O)c1 (relative stereo) | 3.02 µM | 71.9 µM | 23.8 | 0.41 µM | 39.1 µM | 94.5 |  |  |  | 
COc1cc(O)c(C(=O)[C@H]2CC=C(CCC=C(C)C)C[C@@H]2c2ccc(F)cc2)c(O)c1 (relative stereo) | 1.01 µM | > 100 µM |  | 0.39 µM | > 100 µM |  |  |  |  | 
COc1cc(O)c(C(=O)[C@H]2CC=C(CCC=C(C)C)C[C@@H]2c2cc(F)ccc2F)c(O)c1 (relative stereo) | 0.81 µM | 26.6 µM | 32.7 | 0.5 µM | 17.1 µM | 34.4 |  |  |  | 
CC(C)=CCCC1=CC[C@H](C(=O)c2c(O)cccc2O)[C@@H](c2cccc(F)c2)C1 (relative stereo) | 1.23 µM | 30.8 µM | 25.1 | 1.43 µM | 16 µM | 11.2 |  |  |  | 
CC(C)=CCCC1=CC[C@H](C(=O)c2c(O)cccc2O)[C@@H](c2c(F)cccc2F)C1 (single isomer, unassigned) | 1.52 µM | 28.7 µM | 18.9 | 1.34 µM | 21.6 µM | 16.1 |  |  |  | 
